Experimental data as given in patent US6140309A, “Vasoactive effects and free radical generation by β-amyloid peptides” (University of South Florida, priority 1996, dated 2000).
“Also recorded” adds a separate entry of the source.

How the values were obtained:
[1] = system: blood vessel (rat aorta) with intact endothelium; assay: β-amyloid induced contraction (vasoactivity) of blood vessel rings in tissue bath; type: cell-based
Description: (§1) Freshly excised rat and porcine blood vessels were placed in Kreb's bicarbonate buffer equilibrated with 5% CO2 in O2. The buffer composition consisted of 118.2 mM NaCl, 4.7 mM KCl, 1.2 mM MgSO4, 2.5 mM CaCl2, 1.2 mM NaH2 PO4, 23 mM NaHCO3 and 11.2 mM glucose. After cleaning the vessels free of fat and other adhering tissues, the vessels were cut into ring segments of approximately 3mm in length. Care was taken not to damage the intimal surface.
The endothelium was removed from some preparations by rubbing the inside of the lumen with a metal spatula for six to ten seconds and subsequent rinsing with buffer. The removal of endothelium was confirmed by testing for relaxation to acetylcholine [Furchgott and Zawadzki, 1980].
(§2) The blood vessel preparations were mounted on stainless steel hooks attached to a force-displacement transducer and equilibrated under the optimum tension of 1.3 g for a period of sixty minutes in a tissue bath (10 ml) containing oxygenated (5% CO2 in O2) Kreb's buffer at 37° C. The buffer was changed every fifteen minutes. After equilibration for sixty minutes the viability of the blood vessel with intact endothelium was established by constricting the blood vessel using phenylephrine ([…]). This dose of phenylephrine elicited 80% of the maximum response. […] The vessel preparations were washed for fifteen minutes before various manipulations as described below.
Referring to FIG. 10, the arrow indicates the addition of 10^-6 M β-amyloid. The control tissue received no β-amyloid. SOD (150 units/ml) was added thirty seconds prior to the addition of β-amyloid. The maximum contraction induced by β-amyloid was 1.14±0.13 (g) and in presence of SOD the contraction was reduced to 0.04±0.02 (g). Values represent the mean ±SEM of five separate experiments.

[2] = system: blood vessel (rat aorta); assay: Acetylcholine induced relaxation of phenylephrine-preconstricted aorta after β-amyloid pretreatment; type: cell-based
Description: as §1, §2
As shown in FIG. 11a the aorta was preconstricted with 10^-7 M PE and relaxed with increasing doses of acetylcholine as shown by the arrows. (1=10^-9 M, 2=10^-8 M, 3=5×10^-8 M, 4=10^-7 M, 5=5×10^-7 M, 6=10^-6 M, 7=10^-5 M, 8=5×10^-5 M, the curve denoted by (C) is the control curve and +Aβ indicates the curve for β-amyloid treated aorta.)
FIG. 11b illustrates the relaxation by acetylcholine under control conditions and following fifteen minute incubation with 10^-6 M β-amyloid protein. The acetylcholine relaxation curve is shifted to the right but maintains its sigmoidal form indicating attenuation of acetylcholine induced relaxation. Values represent the mean ±SEM of 5 or more experiments. […] At higher doses of acetylcholine greater percentage changes in relaxation occur preserving the sigmoidal response.

[3] = system: aortic rings; assay: β-amyloid augmentation of phenylephrine (PE) induced contraction of aortic rings; type: cell-based, rat; settings: for PE induced contraction, +β-Amyloid P1 (±SEM), percent of control value: 10^-6 M β-amyloid fifteen minutes, control maximum = 100%; for PE induced contraction, +β-Amyloid P2 (±SEM), percent of control value: repeated after rinsing, no further β-amyloid
Description: as §1, §2
The procedure was then repeated following incubation of the tissue with 10^-6 M β-amyloid for fifteen minutes (P1). The tissue was then rinsed and contractions repeated twice following fifteen minute incubation (P2 & P3) without further addition of β-amyloid. Arrows are shown for points of addition for P3.
Following a fifteen minute incubation, the preparations were contracted with 10^-7 M phenylephrine (PE) as described earlier. Control contractions with PE alone were carried out in presence of the various test compounds. Values represent the mean ±SEM of four or more experiments. The heat-inactivated SOD was prepared by placing it in boiling water for thirty minutes followed by cooling prior to use. The hydrogen peroxide-inactivated SOD was prepared by exposing SOD to 10 mM H2 O2 for thirty minutes at pH 8.5 and subsequent separation using Microcon filtration system. The amyloid induced PE contraction was blocked by active SOD. Neither albumin or inactivated SOD had any effect on the amyloid activity.
The effect of preincubation of blood vessel with 10^-6 M β-amyloidon contraction induced by phenylephrine (2,4,8, & 16×10^-8 M is shown in Table 1). The maximum contraction in the absence of β-amyloid is taken as 100% and the values obtained following exposure to β-amyloid are expressed as percent of control value. After washing out phenylephrine and acetylcholine of the control contraction, β-amyloid augmented the phenylephrine induced contractions (P1). This effect was blocked by SOD. Washing out the phenylephrine and acetylcholine of the post peptide contraction and repeating the contractions caused further enhancement (P2). Values represent the mean ±SEM of nine or more experiments.
The tissue was then incubated for fifteen minutes with β-amyloid (5×10^-7 M) with or without the drug, followed by contractions with PE. The concentrations compounds used were: L-NMMA, an inhibitor of NO synthase (10^-4 M); indomethacin, an inhibitor of the cyclooxygenase pathway (10^-5 M); SQ 29548, a thromboxane A2 receptor antagonist (10^-5 M); and catalase (1000 units/ml). Values are represented as percentage of the maximal contraction obtained with β-amyloid and PE alone and standardized to remove the intrinsic effects (if any) of each drug on PE contraction alone. The results represent the mean ±SEM of five or more experiments.

[4] = system: endothelial cells in aortic rings; assay: Electron microscopy of the endothelial cell layer in aortic rings; type: cell-based, rat
Description: As shown in FIGS. 14A-F, […], or in presence of β-amyloid (10^-6 M), or SOD (150 units/ml) and β-amyloid.The tissue samples were kept in glutaraldehyde solution at 4° C. until processed and then rinsed with cacodylate buffer. The tissues were postfixed with 1% buffered osmium tetroxide, dehydrated with graded ethanol solutions, and embedded in a mixture of eponaraldite. Ultrathin sections were stained with uranyl acetate and lead citrate and viewed on model 7000 Hitachi transmission electron microscope. The inset bar indicates one micron. The experiment was repeated three or more times with blood vessels from different animals.

[5] = system: endothelial cell layer in rat coronary artery; assay: Electron microscopy of the endothelial cell layer in rat coronary artery; type: cell-based; settings: β-amyloid thirty minutes at 10^-6 M
Description: The physiological effects of β-amyloid treatment on the coronary artery with and without pretreatment with SOD is shown in FIGS. 7A-C. FIGS. 7A-C are electron micrographs showing the endothelial cell layer in rat coronary artery. […] The tissue samples were kept in glutaraldehyde solution at 4° C. until processed and then rinsed with cacodylate buffer. The tissues were post-fixed with 1% buffered osmium tetroxide, dehydrated with grated ethanol solutions, and embedded in a mixture of eponaraldite. Ultra thin sections were stained with uranyl acetate and lead citrate and viewed on a model 7,000 Hitachi transmission electron microscope. The inset bar indicates two microns. The experiment was repeated three or more times with blood vessels from different animals. FIG. 7A is a control coronary artery and depicts normal endothelial cells closely adhering to the intimal elastic lamina lining of the lumen. […] FIG. 7C depicts a rat coronary artery pretreated with SOD (150 units/ml, for thirty seconds prior to the addition of β-amyloid).

[6] = system: porcine coronary arteries; assay: Amyloid peptide induced contraction of porcine coronary arteries; type: cell-based; settings: increasing concentrations of amyloid peptide
From the text: Freshly isolated porcine coronary arteries were studied by the methods described above for rat aorta.

[7] = system: Porcine aorta; assay: U46619 constriction and bradykinin relaxation of porcine vessel after amyloid peptide; type: cell-based; settings: single dose of amyloid
From the text: The effect of pre-treatment with a single dose of amyloid protein on relaxation induced by increasing concentrations of the vasodilator bradykinin is shown in FIG. 23. […] was preconstricted with a single dose of the vasoconstrictor U46619.

[8] = system: bovine mid cerebral arteries; assay: Effect of β-amyloid on bovine cerebral artery (U46619 contraction, bradykinin vasodilation); type: cell-based; settings: 1 μM β-amyloid for 15 minutes
Description: Freshly dissected bovine mid cerebral arteries were cut into 3 mm rings and studied in tissue chamber as described earlier. Contraction of the blood vessel to the vasoconstrictor U46619 was studied before and after treatment with 1 μM β-amyloid for 15 minutes. […] (See FIG. 24).

Substance: β-amyloid
- duration of the vasoactivity (contractions and relaxations) [1]: fifteen to twenty minutes
- time until vasoactive effect is evident [1]: within thirty seconds; also recorded: less than one minute; also recorded: less than five minutes
- initial detectable change: minor relaxation ([1]; after addition of β-amyloid): < 0.1 g
- effect of β-amyloid on basal tension ([1]; increasing concentrations of β-amyloid): constricted the blood vessel in a concentration-dependent manner
- dependence of the constricting effect on endothelium ([1]; vessel with vs without endothelium): only occurred in the presence of endothelium
- cumulative percentage relaxation by acetylcholine after β-amyloid ([2]; 10^-6 M β-amyloid, fifteen minute incubation, 10^-7 M phenylephrine, all points past 10^-8 M acetylcholine): significantly lowered
- effect of β-amyloid pretreatment on acetylcholine induced relaxation ([2]; cumulative small doses of acetylcholine (FIG. 4)): significantly reduced relaxation induced by the same doses of acetylcholine
- effect of washing the tissue after β-amyloid on acetylcholine induced relaxation ([2]; washout after β-amyloid exposure): did not restore the acetylcholine-induced relaxation to control levels
- effect of β-amyloid pretreatment on phenylephrine constriction ([3]; FIG. 4): enhanced constriction
- PE induced contraction, +β-Amyloid P1 (±SEM), percent of control value ([3]; PE 2×10^-8 M): 13.3 (5.9) %
- PE induced contraction, +β-Amyloid P2 (±SEM), percent of control value ([3]; PE 2×10^-8 M): 20 (5.0) %
- PE induced contraction, +β-Amyloid P1 (±SEM), percent of control value ([3]; PE 4×10^-8 M): 75 (6.0) %
- PE induced contraction, +β-Amyloid P2 (±SEM), percent of control value ([3]; PE 4×10^-8 M): 99 (15.0) %
- PE induced contraction, +β-Amyloid P1 (±SEM), percent of control value ([3]; PE 8×10^-8 M): 105 (15.0) %
- PE induced contraction, +β-Amyloid P2 (±SEM), percent of control value ([3]; PE 8×10^-8 M): 133 (20.0) %
- PE induced contraction, +β-Amyloid P1 (±SEM), percent of control value ([3]; PE 16×10^-8 M): 128 (11.7) %
- PE induced contraction, +β-Amyloid P2 (±SEM), percent of control value ([3]; PE 16×10^-8 M): 141 (17.6) %
- β-amyloid concentration required to induce the morphological changes ([4]; incubation periods of fifteen minutes): ≥ 5×10^-7 M
- morphological effect on endothelial cells ([4]; β-amyloid 10^-6 M, 37° C., thirty minutes): induced significant damage to the endothelial cells
- morphology of endothelial layer after β-amyloid [5]: Derangement of the endothelial layer, condensed nucleus, separation from the intimal elastic lamina, and areas of denuded internal elastic lamina
- contraction of porcine coronary artery samples [6]: dose dependent contraction
- effect on vasodilation by bradykinin ([7]; increasing concentrations of bradykinin): reduced the vasodilation caused by the bradykinin
- effect on vasoconstriction ([7]; preconstricted with U46619): significant increase in vasoconstriction
- contraction induced by the vasoconstrictor U46619 after β-amyloid [8]: significantly increased
